Like-named read-outs stand apart in the source and are kept apart here.
Experiments:
[1] = biological target: T1, bovine α1A receptor (Bos taurus, UniProt P18130); experiment: FLIPR Ca+2 influx assay, a1A; type: cell-based; conditions: for a1A (eff): efficacy in brackets, norepinephrine is the standard full agonist, HEK 293 cells
T1 sequence (P18130 1-466): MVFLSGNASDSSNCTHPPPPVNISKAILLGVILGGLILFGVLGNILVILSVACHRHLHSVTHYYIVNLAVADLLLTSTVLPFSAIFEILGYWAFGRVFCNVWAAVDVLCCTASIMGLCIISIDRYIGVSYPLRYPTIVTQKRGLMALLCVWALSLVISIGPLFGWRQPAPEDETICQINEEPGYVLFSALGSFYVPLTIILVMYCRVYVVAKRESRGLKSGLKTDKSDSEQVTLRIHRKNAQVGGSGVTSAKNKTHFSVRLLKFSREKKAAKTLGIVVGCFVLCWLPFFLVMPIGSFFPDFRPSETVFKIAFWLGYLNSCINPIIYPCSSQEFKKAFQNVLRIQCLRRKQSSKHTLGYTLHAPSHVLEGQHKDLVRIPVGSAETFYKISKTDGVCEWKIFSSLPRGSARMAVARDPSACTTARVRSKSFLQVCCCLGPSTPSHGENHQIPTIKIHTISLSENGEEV
Description: (§1) HEK 293 cells stably expressing the bovine α1A receptor, human alpha 2A receptor and the chimeric G protein Gqi5, are plated in poly-D-lysine coated 384-well plates at 20,000-40,000 cells per well and grown overnight in DMEM supplemented with 10% fetal bovine serum. For FLIPR (fluorometric image plate reader) evaluation, cells are washed twice with HBSS/HEPES Buffer (1× Hanks Buffered Salt Solution, 20 mM HEPES, pH 7.4) prior to the addition of Fluo-4-AM (4 uM Fluo-4-AM, 0.04% pluronic acid in HBSS/HEPES Buffer), a calcium-sensitive dye. Cells are loaded with dye for 40 minutes at 37° C., then washed 4 times with HBSS/HEPES Buffer. For both the agonist and antagonist assay, the test compounds are tested between 0.64 nM-10,000 nM.
(§2) For an agonist assay, the reaction is initiated by the addition of the appropriate dilutions of compounds and the transient calcium signal captured. The peak height of the calcium curve is determined and utilized for calculation of EC50 and efficacy using ActivityBase. Norepinephrine is the standard full agonist used for evaluating alpha-1 and alpha-2 receptor activity.
However, the antagonist blocks the transient calcium signal of the standard agonist norepinephrine in a dose-dependent manner. The residual norepinephrine peak height is compared to the non-antagonized norepinephrine peak height for the determination of % antagonism.

[2] = biological target: T2, human alpha 2A receptor (Homo sapiens, UniProt P08913); experiment: FLIPR Ca+2 influx assay, a2A; type: cell-based; conditions: for a2A (eff): efficacy in brackets, norepinephrine is the standard full agonist, HEK 293 cells
T2 construct: expressed in transfected cells; host or cells: HEK 293
T2 sequence (P08913 1-465): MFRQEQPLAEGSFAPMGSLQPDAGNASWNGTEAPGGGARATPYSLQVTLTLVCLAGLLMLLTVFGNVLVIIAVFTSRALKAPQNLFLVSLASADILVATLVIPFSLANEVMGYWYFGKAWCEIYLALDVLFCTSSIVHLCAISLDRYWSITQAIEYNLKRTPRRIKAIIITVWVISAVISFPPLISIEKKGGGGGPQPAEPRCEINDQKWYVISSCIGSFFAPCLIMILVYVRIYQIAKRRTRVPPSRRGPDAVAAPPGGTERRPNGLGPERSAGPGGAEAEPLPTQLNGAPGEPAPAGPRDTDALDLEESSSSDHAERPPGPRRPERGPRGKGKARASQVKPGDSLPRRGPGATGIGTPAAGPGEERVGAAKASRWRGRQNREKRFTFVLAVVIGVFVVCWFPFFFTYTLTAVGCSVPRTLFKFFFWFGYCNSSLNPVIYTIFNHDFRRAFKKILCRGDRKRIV
Description: as §1, §2
The residual norepinephrine peak height is compared to the non-antagonized norepinephrine peak height for the determination of % antagonism.

Compound | EC50 [1] | a1A (eff) [1] | EC50 [2] | a2A (eff) [2] | EC50 ([1]; HEK 293 cells with chimeric G protein Gqi5, agonist assay, tested 0.64 nM-10,000 nM, n/a: Not active, read-out: a1A EC50)
Cc1c(CO)cccc1[C@H](C)c1c[nH]cn1 [(S)-[3-(1-(1H-imidazol-4-yl)ethyl)-2-methylphenyl]methanol] | 340 to 2400 nM | 0.7 | 25 nM | 0.9 | 
Brc1c(NC2=NCCN2)ccc2nccnc12 [Brimonidine] |  | 0.3 |  | 0.95 | 600 to 2400 nM
